Results: article PMC8199030, “Salvia officinalis L.: Antitrypanosomal Activity and Active Constituents against Trypanosoma brucei rhodesiense” (Molecules, 2021)
Values after ≈ are worked out from the molar mass of the structure shown. Values joined by “and” are separate entries in the source; they are usually repeats but may differ in a detail not shown here. Equal entries are not always repeated. Where two headings read alike, the source gives them in different places. Blank lines part the entries; values can stand above or below the compound they belong to.

Tests used:
[1] = Cytotoxicity against mammalian L6 cells; format: cell-based; conditions: rat
[2] = system: Trypanosoma brucei rhodesiense (Tbr, bloodstream-form trypomastigotes, STIB 900 strain); conditions: cited from earlier work
in vitro = conditions: rat
Method: (§1) Samples with a defined concentration of 2 mg/mL were prepared of each fraction and analyzed by UHPLC/ESI-QqTOF-MS (henceforth abbreviated LC/MS) to determine the analytical fingerprints. After the analysis and dereplication of major peaks (see Figure S1 and Table S1 in Supplementary Material) as well as comparison of the samples’ analytical profiles, 17 representative fractions were selected to be assayed in vitro against Tbr. […] IC50 values for the individual fractions were not determined, in order to save resources and since the % GI data can serve as an approximate substitute in cases where relative activities of similar samples such as the fractions under study are compared.
(§2) Melarsoprol was used as positive control. The cytotoxicity of the compounds was assessed using L6 rat skeletal myoblast cells and podophyllotoxin as a reference drug.
(§3) In vitro assays for the bioactivity against Trypanosoma brucei rhodesiense (Tbr, bloodstream-form trypomastigotes, STIB 900 strain) and cytotoxicity tests against mammalian cells (L6-cell-line from rat skeletal myoblasts) were performed at the Swiss Tropical and Public Health Institute (Swiss TPH, Basel, Switzerland), according to established protocols and as previously described.

[3] = system: Trypanosoma brucei rhodesiense (Tbr, bloodstream-form trypomastigotes, STIB 900 strain); assay: microbe, parasite or virus in culture; conditions: Trypanosoma brucei, read-out: IC50 Tbr (STIB 900)
Method: as §1, §2, §3

[4] = mean of two independent determinations ± deviation from the mean, read-out: IC50 Cytotox L6
[5] = mean of two independent determinations, read-out: IC50 Cytotox L6

Compound: COc1cc([C@@H]2c3cc4c(cc3[C@H](O)[C@H]3COC(=O)[C@H]23)OCO4)cc(OC)c1OC [Podophyllotoxin, reference compound]
IC50 [1, 4]: 0.009 ± 0.001 mg/L
IC50 [1, 5]: 0.022 µM

Compound: CC(C)C1=Cc2ccc3c(c2C(=O)C1=O)CCCC3(C)C [Miltirone, miltirone, reference compound]
activity against Tbr, previously reported [2]: very potent activity

Compound: CC(C)c1cc2c(c(O)c1O)[C@@]13CCCC(C)(C)[C@@H]1[C@H](OC3=O)[C@@H]2O [Epirosmanol (2), epirosmanol]
IC50 [1]: 5 µg/mL and 15 µM
selectivity ratio (in vitro): 1.6
IC50 [3]: 3.2 µg/mL and 9.3 µM

IC50 [3]: ~8.3 mg/L (≈ 24 µM)
Compound: CC(C)c1cc2c(c(O)c1O)[C@@]13CCCC(C)(C)[C@@H]1[C@H](OC3=O)[C@H]2O [Compound 3, rosmanol]

Compound: CO[C@H]1c2cc(C(C)C)c(O)c(O)c2[C@@]23CCCC(C)(C)[C@@H]2[C@@H]1OC3=O [7-O-Methylrosmanol (5), 7-O-methylrosmanol]
IC50 [1, 4]: 6.6 ± 0.8 mg/L
IC50 [1, 5]: 18 µM
selectivity ratio (in vitro): 0.8
IC50 [3]: 8.3 µg/mL and 23 µM

Compound: COc1c(C(C)C)cc2c(c1O)[C@@]1(C(=O)O)CCCC(C)(C)[C@@H]1CC2 [12-O-Methylcarnosic acid (8), 12-O-methylcarnosic acid]
IC50 [1]: 20 µg/mL and 56 µM
selectivity ratio (in vitro): 1.3
IC50 [3]: 15 µg/mL and 44 µM

Compound: C=C[C@](C)(O)CC[C@H]1C(=C)CC[C@H]2C(C)(C)CCC[C@]12C [Manool (9), manool]
IC50 [1, 4]: 5.6 ± 0.5 mg/L
IC50 [1, 5]: 19 µM
selectivity ratio (in vitro): 2.1

Compound: COc1cc2oc(-c3ccc(O)cc3)cc(=O)c2c(O)c1OC [Cirsimaritin (1), 4’,5-dihydroxy-6,7-dimethoxyflavone]
IC50 against Tbr, previous study ([2]; previous study): 3.3 mg/L (≈ 10.5 µM)
IC50 [1]: 4.6 µg/mL and 15 µM
selectivity ratio (in vitro): 2.8
